According to patent publication US20030225127A1, “Heterocyclic sulfonamide derivatives” (priority 2003, published 2003):

SMILES | melting point [°C]
CC(CNS(=O)(=O)C(C)C)c1ccc(-c2ccc3c(c2)CC(=O)N3)cc1 (centres unmarked) [Example 3, 5-[4-(1-methyl-2-{[(methylethyl)sulfonyl]amino}ethyl)phenyl]indolin-2-one] | 170 to 171
CC(C)S(=O)(=O)NC[C@H](C)c1ccc(-c2ccc3c(c2)CC(=O)N3)cc1 [Example 4, 5-[4-((1R)-1-methyl-2-{[(methylethyl)sulfonyl]amino}ethyl)phenyl]indolin-2-one] | 184 to 185
